The test system of this series is MTOR. The series is described as follows: RT-qPCR of MTOR expression after miRNA mimic transfection. The class given is cell-based, human. The settings on record: African American and European American prostate cancer cells; vs nonsense/scrambled (NS) miRNA control. As to the method:
[…] RC77 T/E, a primary prostate cancer cell line derived from a patient, was kindly provided by Dr. Johng Rhim at Center for Prostate Disease Research (CPDR) in Rockville, MD. LNCaP and PC-3 were served as prostate cancer cell line models, and RC77 T/E and MDA PCa 2b were served as prostate cancer cell models in the study. The cells were cultured in specific cell culture media, LNCaP was cultured in RPMI with 10% fetal bovine serum (FBS), PC-3 was cultured in DMEM with 10% FBS, MDA PCa 2b were cultured in BRFF-HPC1 with 20% FBS and RC77 T/E was cultured in Keratinocyte SFM with Human Recombinant Epidermal Growth Factor (EGF 1-53) and Bovine Pituitary Extract (BPE). Cells were maintained at 37° C. in a 5% CO2 incubator. LNCaP, PC-3 and MDA PCa 2b cells were seeded at density 3×10^4 cells/well in 6-well plates. RC77 T/E cells were seeded at density 5×10^4 cells/well in 6-well plates. […]
For the measurement of gene expression level, total RNA was isolated using miRNeasy Mini Kit (50) (Qiagen) from the prostate cancer cells used in the study. Quantification of total RNA samples were done using NanoVue Plus spectrophotometer (GE Healthcare). […] Reverse transcription was performed using iScript Reverse Transcription Supermix kit (Bio-Rad) to generate cDNA then followed by performing quantitative PCR (qPCR) assays using SsoAdvanced Universal SYBR Green supermix kit (Bio-Rad). […]

Turning to “miR-99b-5p mimic: miRNA mimic of miR-99b-5p (SEQ ID NO: 2, CACCCGUAGAACCGACCUUGCG), purchased from Ambion (listed as RNA, chemistry not given here; listed as Homo sapiens)”, the “MTOR expression (RT-qPCR)” value is listed as “decreased”.

These data come from patent US20240287614A1, “RECIPROCAL MICRORNA-MRNA PAIRINGS AS BIOMARKERS AND THERAPEUTIC TARGETS IN CANCER” (UNIVERSITY OF MARYLAND, EASTERN SHORE, priority 2023, published 2024).
